Counter-ions that a name gives are not always drawn.
Test: in vitro
Settings: rat, gh3-tre-luc cells

SMILES | CC50 at 24 h (AC50 (uM) modified / 1000) [µM] | other results
CN(C(=O)CN(CCO)CC(=O)N(C)C(C)(C)Cc1ccccc1)C(C)(C)Cc1ccccc1 [Oxethazaine] | 16.2 | –
CCCC(=O)Nc1c(I)cc(I)c(CC(CC)C(=O)O)c1I (centres unmarked) [Sodium tyropanoate] | 26.5 | –
CCOC(=O)CN[C@@H](C(=O)N1CC[C@H]1C(=O)NCc1ccc(/C(N)=N\O)cc1)C1CCCCC1 [Ximelagatran] | > 50 | –
CN1CCC(=C2c3ccccc3Sc3ccccc32)CC1 [Pimethixene maleate] | 4.52 | –
COS(=O)(=O)C(F)(F)F [Methyl trifluoromethanesulfonate] | > 100 | –
O=C1CCCC(=O)C1 [1,3-Cyclohexanedione] | > 90 | –
Oc1ccc(C2(c3ccc(O)cc3)CC3CC2C2CCCC32)cc1 (centres unmarked) [4,4'-Octahydro-1H-4,7-methanoindene-5,5-diyldiphenol] | 27.4 | –
CN1CCN(C2=Nc3ccccc3Cc3ccccc32)CC1 [Perlapine] | 25.9 | –
O=C(O)C(c1ccc(Cl)cc1)c1ccc(Cl)cc1 [p,p'-DDA] | > 90 | –
N#Cc1c(F)cccc1F [2,6-Difluorobenzonitrile] | > 90 | –
CN(C)C(=O)Nc1ccc(Oc2ccc(Cl)cc2)cc1 [Chloroxuron] | > 90 | –
Cc1oc(-c2ccccc2)nc1CCOc1ccc(C[C@H](Nc2ccccc2C(=O)c2ccccc2)C(=O)O)cc1 [Farglitazar] | 25 | –
O=P(O)(Oc1ccccc1)Oc1ccccc1 [Diphenyl phosphate] | – | CC50 at 24 h (AC50 (uM) modified / 1000, Tox21_110001=Tox21_303401, viability, 1 nM T3 present, 24 h): > 90 µM
CCCC(=O)OCc1ccccc1 [Benzyl butyrate] | > 90 | –
CC(C)(O)Cc1ccccc1 [2-Methyl-1-phenylpropan-2-ol] | > 90 | –
CN1[C@@H]2CC[C@H]1C[C@@H](OC(=O)c1c[nH]c3ccccc13)C2 [Tropisetron] | 23.8 | –
C[C@]12C=CC(=O)C=C1CC[C@@H]1[C@@H]2C(=O)C[C@@]2(C)[C@H]1CC[C@]2(O)C(=O)CO [Prednisone] | > 90 | –
Nc1cnn(-c2ccccc2)c(=O)c1Cl [Chloridazon] | > 90 | –

SMILES | CC50 at 24 h (AC50 (uM) modified / 1000) [µM] | other results
CCCCCCCCCCCCSC [1-(Methylsulfanyl)dodecane] | > 90 | –
CCn1ccnc1CC1COc2ccccc2O1 (centres unmarked) [Imiloxan] | > 50 | –
O=C(COc1ccc(Cl)cc1)N1CCN(Cc2ccc3c(c2)OCO3)CC1 [Fipexide hydrochloride] | 66.7 | –
O=C(CCl)NCO [2-Chloro-N-(hydroxymethyl)acetamide] | – | CC50 at 24 h (AC50 (uM) modified / 1000, Tox21_110001=Tox21_300964, viability, 1 nM T3 present, 24 h): > 90 µM
C=CCN1CC[C@]23c4c5ccc(O)c4O[C@H]2[C@@H](O)C=C[C@H]3[C@H]1C5 [Nalorphine hydrochloride] | – | CC50 at 24 h (AC50 (uM) modified / 1000, Tox21_110001=Tox21_112614, viability, 1 nM T3 present, 24 h): > 50 µM
CCC1(C)CC(=O)NC1=O (centres unmarked) [Ethosuximide] | > 50 | –
O=[N+]([O-])C1(Br)COCOC1 [5-Bromo-5-nitro-1,3-dioxane] | 11.8 | –
c1ccc(CCNc2nc(-c3ccccc3)cs2)cc1 [Fanetizole] | > 50 | –
C=CC[N+](C)(C)CC=C [Diallyldimethylammonium chloride] | > 90 | –
C=CS(=O)(=O)O [Sodium ethenesulfonate] | > 50 | –
CN(C)CCc1ccc(O)cc1 [Hordenine] | > 50 | –
NC(=O)OCCCc1ccccc1 [Phenprobamate] | > 50 | –
CCN(Cc1cccc(S(=O)(=O)O)c1)c1ccc(C(=C2C=CC(=[N+](CC)Cc3cccc(S(=O)(=O)O)c3)C=C2)c2ccc(O)cc2S(=O)(=O)[O-])cc1 [FD&C Green No. 3] | 41.3 | –
Nc1c(Cl)c(Cl)c(Cl)c(Cl)c1Cl [Pentachloroaniline] | – | CC50 at 24 h (AC50 (uM) modified / 1000, Tox21_110001=Tox21_400021, viability, 1 nM T3 present, 24 h): > 90 µM
OC(CN1CCCCC1)c1cc(-c2ccccc2)on1 (centres unmarked) [Perisoxal citrate] | > 50 | –
CC(C)CCCCCOC(=O)CCCOc1ccc(Cl)cc1Cl [2,4-DB-isooctyl ester] | > 90 | –
c1ccc2c(c1)OCC(C1=NCCN1)O2 (centres unmarked) [Idazoxan] | 7.8 | –

Source: PMC6792352, “Limited Chemical Structural Diversity Found to Modulate Thyroid Hormone Receptor in the Tox21 Chemical Library” (Environmental Health Perspectives, 2019)
